Measured values published in US20230372569A1 (priority 2020, published 2023).

What was measured:
[1] = test system: Clostridium difficile ATCC43539; experiment: Room decontamination test, inoculated dirty petri dishes (5% horse serum), two hours; assay type: cell-based; conditions: 5% w/w peracetic acid solution, 66 m^3 room
Procedure: A room of volume 66 m^3 (6 m×4.2 m (floor area)×2.6 m (height)) was used as a test room. The room was closed in the usual way, that a domestic, clinic or hospital room would be closed off by closing windows, doors and external vents and turning off any air-conditioning. However, the room was not hermetically sealed and a small amount of airflow was permissible. The temperature of the test room was ambient room temperature (between 20° C. and 25° C.).
A peracetic acid vapour/mist generator (nebulizer) was positioned along the smaller wall, at a height of about 1.21 m.
The peracetic acid vapour/mist generator utilised a commercially available 5% w/w peracetic acid solution. Peracetic acid is sold as an equilibrium mixture of hydrogen peroxide, acetic acid and water. 5% w/w Peracetic acid solution typically comprises 20-30% w/w hydrogen peroxide, 6-10% w/w acetic acid 4.5-5.4% w/w peracetic acid and the balance being water. In many embodiments of the present invention, the 5% w/w peracetic acid solution used comprised 24% w/w hydrogen peroxide, 7.5% w/w acetic acid 5% w/w peracetic acid and the balance being water.
The peracetic acid vapour/mist generator was also accompanied by a UV light that was located in the same housing. […] That is a known germicidal wavelength. The UV light shone upon all the exposed surfaces in the room. The UV lamp was 18 watts. The bulb used synthetic quartz to prevent escape of 185 nm ozone-forming radiation.
The UV-C light and peracetic acid vapour/mist generator could be operated independently or simultaneously, allowing for a direct comparison of the individual decontaminating agents with each other and with the combination.
Immediately before commencing sterilization, petri dishes containing inoculum were placed at three discrete locations within the room—one close to the UV/peracetic acid device (e.g. 80 cm from the device), one in the middle of the room and the other at the opposite end of the room. The dishes were also placed at differing heights. The petridishes were “dirty” and contained 5% horse serum. […] The number of microorganisms was counted. […]

[2] = test system: Pseudomonas aeruginosa; experiment: Deactivation kinetics (Weibull model) with PAA, with and without UVC; assay type: cell-based
From the text: (§1) In most cases, especially for the PAA+UVC combination, they are nonlinear in coordinates log10[CFU]:-t. Formally it means that it was not a classical first-order reaction. The first-order model assumes that the cells and spores in a population have the same resistance and that the relationship between the decline in the number of survivors over the treatment time is linear. The model can be written as log10(N/N0)=−kt, where N0 is the initial number of cells (CFU/ml), N is the number of survivors after an exposure time t (CFU/ml), k is the rate parameter, and t is the treatment time (min). The D value, a typical index of inactivation kinetics, is the decimal reduction time in minutes (time required to kill 90% of the organisms).
(§2) The Weibull model assumes that the survival curve is a cumulative distribution of lethal effects. The cumulative form of the Weibull distribution is given by log10(N/N0)=[…], where b and n are the scale and shape parameters, respectively. When the shape parameter n is greater than or less than 1, the shape of the survival curve will present a shoulder or tailing, respectively. When n=1, the cumulative form of the Weibull distribution reduces to the first-order rate equation. For the Weibull model, the parameter td, which is analogous to the traditional D value, can be determined. td is the time required for d log reductions of the number of microorganisms and was calculated by the parameters b and n as shown in the equation
(§3) where d is the desired log reduction, b=k and 2.303 is coefficient due to the shift from base e logarithms to base 10 ones.

[3] = test system: Salmonella enterica; experiment: as above; assay type: cell-based
From the text: as §1, §2, §3

[4] = test system: Staphylococcus aureus; experiment: as above; assay type: cell-based
From the text: as §1, §2, §3

[5] = test system: Candida albicans; experiment: as above; assay type: cell-based
From the text: as §1, §2, §3

[6] = acetic acid value given as TWA; cited from earlier work

Structure (SMILES) | Log reduction, Location 1 ([1]; Location 1 (close to device)) | Log reduction, Location 2 ([1]; Location 2 (middle of room)) | Log reduction, Location 3 ([1]; Location 3 (opposite end of room)) | D (decimal reduction time) [2] [min] | k (Weibull deactivation constant) [2] [h⁻¹] | n (Weibull shape parameter) [2] | D (decimal reduction time) [3] [min] | k (Weibull deactivation constant) [3] [h⁻¹] | n (Weibull shape parameter) [3] | D (decimal reduction time) [4] [min] | k (Weibull deactivation constant) [4] [h⁻¹] | n (Weibull shape parameter) [4] | D (decimal reduction time) [5] [min] | k (Weibull deactivation constant) [5] [h⁻¹] | n (Weibull shape parameter) [5] | vapour safety level [6] [ppm]
CC(=O)OO [Peracetic Acid only, Peracetic acid] | Log 0.71 log | log 0.97 | log 1.19 | 168 | 0.052 | 1.5 | 70 | 0.2 | 1.24 | 223 | 0.055 | 1.13 | 37 | 0.45 | 1.25 | 0.17
CC(=O)O [acetic acid] | – | – | – | – | – | – | – | – | – | – | – | – | – | – | – | 10
